According to the Kinase Knowledgebase extract (Sharma et al. 2016):

Key:
PIK3CA (human) = PIK3CA (human) (UniProt P42336); test: Inhibition of PIK3CA Kinase Activity (Fluorescence Polarization Format Assay)
ERBB2;PIK3CA (human) = ERBB2;PIK3CA (human) (UniProt P42336); test: Inhibition of ERBB2 and PIK3CA Kinase Activity in MDA361 Cells; conditions: mda-361
Chain of ERBB2;PIK3CA (human) (P42336 whole entry, looked up): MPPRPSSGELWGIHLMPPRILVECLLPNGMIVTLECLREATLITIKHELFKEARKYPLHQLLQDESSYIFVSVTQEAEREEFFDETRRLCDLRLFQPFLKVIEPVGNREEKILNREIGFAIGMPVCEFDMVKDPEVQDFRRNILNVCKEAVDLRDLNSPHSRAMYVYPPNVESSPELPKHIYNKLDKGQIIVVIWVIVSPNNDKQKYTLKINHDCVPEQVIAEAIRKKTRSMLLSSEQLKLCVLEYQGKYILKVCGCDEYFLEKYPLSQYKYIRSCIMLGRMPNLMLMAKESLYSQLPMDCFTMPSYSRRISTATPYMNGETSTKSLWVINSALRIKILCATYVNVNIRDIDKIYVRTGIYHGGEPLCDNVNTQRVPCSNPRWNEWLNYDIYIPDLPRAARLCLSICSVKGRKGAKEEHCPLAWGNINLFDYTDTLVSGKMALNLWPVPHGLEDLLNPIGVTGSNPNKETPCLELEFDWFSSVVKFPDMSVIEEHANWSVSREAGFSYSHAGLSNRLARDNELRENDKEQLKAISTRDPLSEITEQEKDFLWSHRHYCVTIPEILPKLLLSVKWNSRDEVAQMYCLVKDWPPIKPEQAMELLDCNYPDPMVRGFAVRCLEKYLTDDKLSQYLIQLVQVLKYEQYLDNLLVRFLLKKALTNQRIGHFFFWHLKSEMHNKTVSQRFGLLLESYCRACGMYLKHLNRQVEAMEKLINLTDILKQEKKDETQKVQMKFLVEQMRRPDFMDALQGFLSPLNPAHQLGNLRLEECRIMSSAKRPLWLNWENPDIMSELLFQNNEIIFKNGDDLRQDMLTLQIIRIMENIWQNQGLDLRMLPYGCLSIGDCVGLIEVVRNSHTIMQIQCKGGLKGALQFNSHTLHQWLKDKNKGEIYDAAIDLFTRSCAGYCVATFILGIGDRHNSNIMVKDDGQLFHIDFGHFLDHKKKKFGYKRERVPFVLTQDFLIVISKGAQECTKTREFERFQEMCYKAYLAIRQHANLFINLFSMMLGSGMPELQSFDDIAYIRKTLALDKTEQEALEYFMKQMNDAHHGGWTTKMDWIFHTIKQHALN

Chain of PIK3CA (human) (P42336 whole entry, looked up): as above

Structure (SMILES)	IC50 (PIK3CA (human)) [nM]	IC50 (ERBB2;PIK3CA (human)) [nM]
O=C(Nc1ccncc1)Nc1ccc(-c2nc(N3CCOCC3)c3ccn(CCN4CCCC4)c3n2)cc1	30	–
Oc1cccc(-c2nc(N3CCOCC3)c3cc[nH]c3n2)c1	43	–
CN(C)CCn1ccc2c(N3CCOCC3)nc(-c3cccc(O)c3)nc21	76	–
CCNC(=O)Nc1ccc(-c2nc(N3CCOCC3)c3ccn(CCN(C)C)c3n2)cc1	226	–
CN(C)CCN(C)C(=O)c1ccc(NC(=O)Nc2ccc(-c3nc(N4CCOCC4)c4ccn(CC(F)(F)F)c4n3)cc2)cc1	–	< 3
Cc1cccc(-c2nc(N3CCOCC3)c3[nH]ccc3n2)c1	1510	–
